Like-named read-outs stand apart in the source and are kept apart here.
Columns and labels:
[1] = tested on: HepG2 A10/hsp22 stress inducible clone; test: cells; type: cell-based, human
[2] = tested on: HepG2 A10/hsp22 stress inducible clone; conditions: for IC50: read-out: IC50 (Cell Number)
[3] = tested on: Drosophila melanogaster hsp22 promoter; type: cell-based; conditions: for IC50: read-out: IC50 derived from KS curves, EGFP expression
[4] = tested on: HepG2 A10/hsp22 stress inducible clone; test: cells; conditions: Homo sapiens, HepG2, read-out: IC50 (Cell Number)
hsp22 promoter = conditions: cited from earlier work
[5] = tested on: EGFP expressing stress inducible clones; design: method as in PMID 16492392; conditions: 6 h toxic induction combined with a 12–18 h recovery period; read-out: IC50 in 96 well format assays; cited from earlier work
HepG2 cells [6] = conditions: cited from earlier work
HeLa cells = conditions: cited from earlier work
HepG2 cells [7] = tested on: HepG2 cells; design: method as in PMID 16111842; conditions: read-out: IC50, neutral red quantification, cited from earlier work
HepG2 cells [8] = tested on: HepG2 cells; design: method as in PMID 16111842; conditions: read-out: IC50, MTT assay, cited from earlier work
[9] = […], linear regression, two independent experiments
[10] = same stress inducible clones, 96-well format
[11] = calculated on Kolmogorov-Smirnov score curves

## C[n+]1ccc(-c2cc[n+](C)cc2)cc1 [Paraquat]
[1]; Homo sapiens, HepG2, 6 h, […], linear regression, two independent experiments, read-out: IC50 for Cell Area
  IC50: 44 µM
[1]; [9]
  IC50 for Shape Index: 29 µM
[1]; compared with Arsenate and Cadmium
  Shape Index effect (in words): did not induce as significant a decrease of this index
[1]; compared with heavy metals
  Cell Roundness effect (in words): produced a less significant effect
[1]; decrease from around 900 µm^2
  Cell Area after toxic insult (cell shrinkage): 700 µm^2
[2]; human
  doses giving an obvious decrease in cell number: greater than 20 µM
[3]; HepG2 A10 clone, 0.5 µM to 1 mM
  EGFP expression with hsp22 promoter (in words): did not induce any significant EGFP expression
[4]
  IC50: 88 µM

## [Cl][Cd][Cl] [CdCl2, Cadmium chloride]
hsp22 promoter; reported
  induction windows: 10 to 100 µM
hsp22 promoter; [10]
  concentration over which promoter activity gradually decreased: over 60 µM
  peak expression of EGFP (concentration): around 50 µM
[1]; HepG2 A10 clone
  concentrations causing a decrease in Shape Index: above 20 µM
[1]; [9]
  IC50 for Shape Index: 32 µM
[1]; […], linear regression, two independent experiments, read-out: IC50 for Cell Area
  IC50: 29 µM
[1]; […], linear regression, two independent experiments, read-out: IC50 for Cell Roundness
  IC50: 52 µM
[1]; [11]
  IC50 derived from KS curves, Shape Index: 48 µM
[1]; calculated on Kolmogorov-Smirnov score curves, read-out: IC50 derived from KS curves, Cell Area
  IC50: 25 µM
[1]; calculated on Kolmogorov-Smirnov score curves, read-out: IC50 derived from KS curves, Roundness
  IC50: 60 µM
[1]; decrease from around 900 µm^2
  Cell Area after toxic insult (cell shrinkage): around 400 µm^2
[1]; late dose, particularly with cadmium
  dose at which increase in Cell Roundness occurred: 100 µM
[5]
  IC50: 50 µM
HepG2 cells [6]; HepG2, 24 h exposure
  concentration that elicited mild (20–25%) cytotoxicity: 40 µM
  concentration that elicited minimal (≤5%) cytotoxicity: 15 µM
  concentration that elicited more severe (approximately 50%) cytotoxicity: 60 µM
HepG2 cells [6]; read-out: IC50 for cytotoxicity, HepG2, 24 h exposure
  IC50: 60 to 70 µM
HeLa cells
  CC50: 50 µM
[2]
  doses giving an obvious decrease in cell number: greater than 20 µM
[2]; [9]
  IC50: 83 µM
[3]
  dose at which EGFP expression could be detected: 50 µM
  dose at which hsp22 promoter activation (EGFP) disappeared: 100 µM
  dose of maximum activation of hsp22 promoter (EGFP expression): around 50 µM
[3]; [11]
  IC50: 28 µM
HepG2 cells [7]; HepG2, 5 h exposure
  IC50: 100 µM
HepG2 cells [7]; HepG2, 8 h exposure
  IC50: 80 µM
HepG2 cells [7]; HepG2, 24 h exposure
  IC50: 8 µM
HepG2 cells [8]; HepG2, 3 h exposure
  IC50: 500 µM
HepG2 cells [8]; HepG2, 5 h exposure
  IC50: 100 µM
HepG2 cells [8]; HepG2, 8 h exposure
  IC50: 40 µM
HepG2 cells [8]; HepG2, 24 h exposure
  IC50: 15 µM

## Sodium arsenate
hsp22 promoter
  induction windows: 10 to 100 µM
[1]
  Cell Area after toxic insult (cell shrinkage): around 400 µm^2
  IC50 derived from KS curves, Roundness: no significant Roundness effect
  IC50 derived from KS curves, Shape Index: 32 µM
  IC50 for Shape Index: 24 µM
  concentrations causing a decrease in Shape Index: above 20 µM
  dose after which Shape Index distribution was significantly different from control (KS): > 50 µM
  dose at which Cell Area reached the KS score 0.2 threshold: 5 µM
  dose at which increase in Cell Roundness occurred: 100 µM
[1]; read-out: IC50 derived from KS curves, Cell Area
  IC50: 19 µM
[1]; read-out: IC50 for Cell Area
  IC50: 29 µM
[1]; read-out: IC50 for Cell Roundness
  IC50: 59 µM
HepG2 cells [6]
  IC50: 60 to 70 µM
  concentration that elicited mild (20–25%) cytotoxicity: 55 µM
  concentration that elicited minimal (≤5%) cytotoxicity: 15 µM
  concentration that elicited more severe (approximately 50%) cytotoxicity: 70 µM
[2]
  doses giving an obvious decrease in cell number: greater than 20 µM
  IC50: 85 µM
[3]
  dose at which EGFP Grey Level reached the KS score 0.2 threshold: 10 µM
  dose at which EGFP expression could be detected: 20 µM
  dose at which hsp22 promoter activation (EGFP) disappeared: 100 µM
  IC50: 19 µM
